Reference: publication PMC11111408, “Concurrent inhibition of oncogenic and wild-type RAS-GTP for cancer therapy” (Nature, 2024)
“And” between values parts separate entries of the source, which are not always exact repeats. Identical values can stand only once.

How the values were obtained:
[1] = tested on: NCI-H358 cells (CYPA-high, CYPA-low); assay: Proliferation (CTG) of NCI-H358 cells with low or high CYPA; type: cell-based, human
Method: (§1) Data points show biological duplicates normalized to vehicle control. […] Data points show biological duplicates normalized to vehicle control from 1 of 2–26 independent experiments. Source Data
Alternatively, cells were seeded in round-bottom ultra-low attachment 96-well plates, centrifuged at 1,000 rpm for 10 min to pellet the cells, and incubated overnight or up to 72 h to allow for 3D spheroid formation. […] Cell viability was determined by CellTiter-Glo 2.0 reagent (2D CTG) (Promega, G9243) or 3D CellTiter-Glo reagent (3D CTG) (Promega, G9683) according to the manufacturer’s protocols. Luminescence was detected using a SpectraMax M5 Plate Reader (Molecular Devices) of Perkin Elmer Enspire. Luminescence signal was normalized to vehicle-treated wells (normalized signal (%) = (luminescence (treated)/mean luminescence (vehicle)) × 100%). […] Data were plotted as log [inhibitor (M)], and a four-parameter sigmoidal concentration response model was fitted to the data to calculate EC50. […] Pa16C MEK1 mutant cells were evaluated by live-cell counting using Calcein AM and a SpectraMax i3X multi-mode detection platform (Molecular Devices). Growth percentages were calculated by normalizing the treated cell counts to their respective untreated cell counts.

[2] = Cell-to-medium concentration ratio of RMC-7977 (LC–MS/MS bioanalysis of cells and supernatant); type: in vitro ADME, human
Method: Cells were pelleted by centrifugation, and 1 ml of supernatant was reserved and frozen at −80 °C. Cell pellets were washed twice in cold PBS, and pre-weighed tubes containing the cell pellets were weighed prior to snap freezing in a slurry of dry ice and ethanol. […] Cell pellet samples were resuspended in cell medium (diluted as needed), then treated as supernatant. An aliquot of supernatant or resuspended cells (50 µL) was quenched with a 3× volume of acetonitrile containing the internal standard terfenadine (2.5 ng ml^−1). […] The lower limit of quantification was 0.25 ng ml^−1, and the calibration range was 0.25 to 400 ng ml^−1.

[3] = tested on: Capan-1, SW620, AsPC-1, HPAC, NCI-H358, PSN1, HUPT3, HCT 116, Hs 766T, SK-MEL-30, KU1919, NCI-H1975, A375; assay: pERK (AlphaLISA) in human cancer cell lines; type: cell-based
Source text: as §1

[4] = tested on: CT26 syngeneic tumours engineered to express KRAS^G12C; assay: Immune cell response in eCT26 KRAS^G12C syngeneic tumours; type: in vivo, mouse; settings: 24 hours post 4 days of treatment, 25 mg/kg PO QD, individual mice
Method: Tumor tissue was minced, processed with the Dri Tumor & Tissue Dissociation Reagent from BD Biosciences and homogenized with the gentleMACS™ Dissociator. Tumor cell suspensions were incubated at 4°C for 30 minutes with Mouse BD Fc Block (Clone 2.4G2 from BD Pharmingen), 10 minutes with Blue Dead Cell Stain Kit (Invitrogen) and 30 min in cell staining buffer. […] Cells were analyzed on a 4-laser Cytek Aurora (Cytek Biosciences), and data analysis was done using SpectroFlo (Cytek Biosciences) and FlowJo (FlowJo LLC.).

Compound: CCn1c(-c2cc(N3CCN(C4CC4)CC3)cnc2[C@H](C)OC)c2c3cc(ccc31)-c1csc(n1)C[C@H](NC(=O)[C@H]1[C@@H]3COC[C@@H]31)C(=O)N1CCC[C@H](N1)C(=O)OCC(C)(C)C2 [RMC-7977]
- sensitivity of CYPA-high versus CYPA-low cells, inhibition of cell proliferation ([1]; NCI-H358, doxycycline-inducible CYPA, 120 h): eightfold
- Proliferation, H358 CypA high (+ 0.1 µg/ml dox) ([1]; RMC-7977 0.0152 nM): 114.566 and 114.478 and 102.697 and 95.6358
- Proliferation, H358 CypA high (- dox) ([1]; RMC-7977 0.0152 nM): 114.881 and 112.875 and 101.544 and 96.9285
- Proliferation, H358 CypA low (+ 0.1 µg/ml dox) ([1]; RMC-7977 0.0152 nM): 109.975 and 111.873 and 103.465 and 96.8877
- Proliferation, H358 CypA low (- dox) ([1]; RMC-7977 0.0152 nM): 131.295 and 170.353 and 103.153 and 109.53
- Proliferation, H358 CypA high (+ 0.1 µg/ml dox) ([1]; RMC-7977 0.0457 nM): 102.073 and 87.0456
- Proliferation, H358 CypA high (- dox) ([1]; RMC-7977 0.0457 nM): 94.1146 and 92.3438
- Proliferation, H358 CypA low (+ 0.1 µg/ml dox) ([1]; RMC-7977 0.0457 nM): 104.393 and 103.775
- Proliferation, H358 CypA low (- dox) ([1]; RMC-7977 0.0457 nM): 101.295 and 103.944
- Proliferation, H358 CypA high (+ 0.1 µg/ml dox) ([1]; RMC-7977 0.41 nM): 40.4066 and 38.4296
- Proliferation, H358 CypA high (- dox) ([1]; RMC-7977 0.41 nM): 99.8914 and 99.4838
- Proliferation, H358 CypA low (+ 0.1 µg/ml dox) ([1]; RMC-7977 0.41 nM): 94.3293 and 90.7108
- Proliferation, H358 CypA low (- dox) ([1]; RMC-7977 0.41 nM): 110.992 and 108.667
- Proliferation, H358 CypA high (+ 0.1 µg/ml dox) ([1]; RMC-7977 3.70 nM): 4.175 and 3.964
- Proliferation, H358 CypA high (- dox) ([1]; RMC-7977 3.70 nM): 92.1373 and 96.6037
- Proliferation, H358 CypA low (+ 0.1 µg/ml dox) ([1]; RMC-7977 3.70 nM): 44.8323 and 42.163
- Proliferation, H358 CypA low (- dox) ([1]; RMC-7977 3.70 nM): 108.382 and 108.201
- Proliferation, H358 CypA high (+ 0.1 µg/ml dox) ([1]; RMC-7977 11.11 nM): 1.059 and 0.9033
- Proliferation, H358 CypA high (- dox) ([1]; RMC-7977 11.11 nM): 92.3418 and 100.036
- Proliferation, H358 CypA low (+ 0.1 µg/ml dox) ([1]; RMC-7977 11.11 nM): 22.8241 and 21.8177
- Proliferation, H358 CypA low (- dox) ([1]; RMC-7977 11.11 nM): 112.468 and 108.323
- Proliferation, H358 CypA high (+ 0.1 µg/ml dox) ([1]; RMC-7977 33.33 nM): 0.7359 and 0.8327
- Proliferation, H358 CypA high (- dox) ([1]; RMC-7977 33.33 nM): 92.8182 and 94.1066
- Proliferation, H358 CypA low (+ 0.1 µg/ml dox) ([1]; RMC-7977 33.33 nM): 11.066 and 10.8911
- Proliferation, H358 CypA low (- dox) ([1]; RMC-7977 33.33 nM): 104.142 and 111.18
- Proliferation, H358 CypA high (+ 0.1 µg/ml dox) ([1]; RMC-7977 100.00 nM): 0.6202 and 0.4579
- Proliferation, H358 CypA high (- dox) ([1]; RMC-7977 100.00 nM): 94.8777 and 89.8025
- Proliferation, H358 CypA low (+ 0.1 µg/ml dox) ([1]; RMC-7977 100.00 nM): 7.141 and 7.102
- Proliferation, H358 CypA low (- dox) ([1]; RMC-7977 100.00 nM): 104.79 and 108.679
- Proliferation, H358 CypA high (+ 0.1 µg/ml dox) ([1]; RMC-7977 300.00 nM): 0.5256 and 0.2817
- Proliferation, H358 CypA high (- dox) ([1]; RMC-7977 300.00 nM): 83.7998 and 85.0113
- Proliferation, H358 CypA low (+ 0.1 µg/ml dox) ([1]; RMC-7977 300.00 nM): 5.455 and 5.338
- Proliferation, H358 CypA low (- dox) ([1]; RMC-7977 300.00 nM): 79.1522 and 100.975
- LC/MS bioanalysis of cells treated with RMC-7977 ([2]; AsPC-1, RMC-7977 10 nM): 161.5 and 241.3 and 143.0
- LC/MS bioanalysis of cells treated with RMC-7977 ([2]; AsPC-1, RMC-7977 100 nM): 76.8 and 68.8 and 89.6
- LC/MS bioanalysis of cells treated with RMC-7977 ([2]; AsPC-1, RMC-7977 1000 nM): 50.6 and 44.9
- pERK of RAS mutant and RAS WT cell lines treated with RMC-7977 ([3]; CAPAN1, RMC-7977 1.52 nM): 19.123 and 19.8052
- pERK of RAS mutant and RAS WT cell lines treated with RMC-7977 ([3]; CAPAN1, RMC-7977 4.57 nM): 1.955 and 2.566
- pERK of RAS mutant and RAS WT cell lines treated with RMC-7977 ([3]; HUPT3, RMC-7977 0.05 nM): 94.4091 and 94.8337 and 88.9674 and 91.9384 and 90.4786 and 91.137
- pERK of RAS mutant and RAS WT cell lines treated with RMC-7977 ([3]; HUPT3, RMC-7977 0.46 nM): 54.494 and 62.3496 and 67.5543 and 72.6449 and 54.2163 and 63.5857
- pERK (normalised response) ([3]; NCIH358, RMC-7977 0.05 nM): 95.3351 and 101.687
- pERK (normalised response) ([3]; NCIH358, RMC-7977 0.46 nM): 100.659 and 104.04
- pERK (normalised response) ([3]; NCIH358, RMC-7977 4.12 nM): 12.3735 and 16.2725
- pERK (normalised response) ([3]; PSN1, RMC-7977 0.05 nM): 88.9166 and 100.089
- pERK (normalised response) ([3]; RMC-7977 123.46 nM, replicates): -0.725 and -0.593 and -0.5397 and -0.3753 and -0.4309 and -0.2687 and -0.4302 and -0.02426 and 0.06955 and 0.1569 and -0.4286 and -0.3396 and -0.5772 and -0.5479 and -0.6628 and -0.5005 and -0.5749 and -0.2908
- pERK (normalised response) ([3]; RMC-7977 370.39 nM, replicates): -0.7644 and -0.7111 and -0.5907 and -0.5768 and -0.4216 and -0.3892 and -0.6033 and -0.5758 and -0.3364 and 0.5402 and -0.5111 and -0.3801 and -0.726 and -0.7102 and -0.7981 and -0.753 and -0.6335 and -0.6222
- pERK (normalised response) ([3]; RMC-7977 1111.14 nM, replicates): -0.8316 and -0.7436 and -0.6671 and -0.6486 and -0.6046 and -0.6033 and -0.5758 and -0.3138 and -0.0744 and -0.5014 and -0.4707 and -0.7846 and -0.6967 and -0.78 and -0.7169 (2×) and -0.6921
- pERK (normalised response) ([3]; RMC-7977 3333.41 nM, replicates): -0.871 and -0.8455 and -0.7297 and -0.8432 and -0.7667 and -0.6405 and -0.6259 and -0.2555 and 0.2652 and -0.5936 and -0.3995 and -0.7395 and -0.6651 and -0.762 and -0.5906 and -0.7169 and -0.656
- pERK (normalised response) ([3]; RMC-7977 10000.00 nM, replicates): -0.9243 and 0.3336 and -0.8571 and 0.183 and -0.9196 and -0.05096 and -0.6324 and -0.02426 and -0.4949 and 0.5774 and -0.5725 and 0.8637 and -0.8004 and 0.4058 and -0.7439 and 0.02254 and -0.7755 and 0.9604
- AH1 specific % of CD8+ cells [4]: 37.8% and 45.2% and 69.2% and 39.2%
- CD8+ % of CD45+ cells [4]: 36.2% and 31.8% and 38.7% and 46.1%
- CD45+ % of live cells [4]: 77.4% and 74.9% and 84.2% and 83.5%
